Values of other authors, collected in patent US11793981B2, “Microneedle device for control of thyroid hormone levels” (priority 2020, dated 2023).
Like-named read-outs stand apart in the source and are kept apart here.

How the values were obtained:
[1] = hypothyroid patients receiving LT4
[2] = system: hypothyroidism; conditions: LT4-treated patients, despite supposedly adequate LT4 treatment
[3] = pregnancy

Row | Structure (SMILES) | half-life (oral LT3) | half-life (oral LT4) | lower serum levels of T3 [1] | patients with residual symptoms of hypothyroidism and lower well-being [2] | crossing of the placenta [3]
1 | N[C@@H](Cc1cc(I)c(Oc2ccc(O)c(I)c2)c(I)c1)C(=O)O [LT3, liothyronine] | hours to two days |  |  |  | 
2 | N[C@@H](Cc1cc(I)c(Oc2cc(I)c(O)c(I)c2)c(I)c1)C(=O)O [LT4, levothyroxine] |  | about seven | about 10% | 10-20% | crosses the placenta
